Results reported in ChEMBL document CHEMBL6182828, “Medicinal chemistry-based perspectives on thiophene and its derivatives: exploring structural insights to discover plausible druggable leads” (RSC Med Chem, 2025).
pEC50, pIC50: −log10 of the molar value.

Key:
HONE1 cell line = assay: Cytotoxicity against human HONE1 cell line assessed as reduction in cell growth incubated for 24 hrs by SRB assay; assay type: toxicity, cell-based; conditions: HONE1, 24 h
[1] = Cytotoxicity against human WI-38 cells assessed as reduction in cell growth incubated for 24 hrs by SRB assay; assay type: toxicity, cell-based
HA22T cell line = assay: Cytotoxicity against human HA22T cell line assessed as reduction in cell growth incubated for 24 hrs by SRB assay; assay type: functional, cell-based
DLD-1 = assay: Cytotoxicity against human DLD-1 cells assessed as reduction in cell growth incubated for 24 hrs by SRB assay; assay type: functional, cell-based; conditions: DLD-1, 24 h
MCF7 [2] = assay: Cytotoxicity against human MCF7 cells assessed as reduction in cell growth incubated for 24 hrs by SRB assay; assay type: functional, cell-based; conditions: MCF7, 24 h
NUGC-3 = assay: Cytotoxicity against human NUGC-3 cells assessed as reduction in cell growth incubated for 24 hrs by SRB assay; assay type: functional, cell-based; conditions: NUGC-3, 24 h
HepG2 = assay: Cytotoxicity against human HepG2 cells assessed as reduction in cell growth incubated for 24 hrs by SRB assay; assay type: functional, cell-based; conditions: HepG2, 24 h
Glucagon receptor [3] = molecular target: T1, Glucagon receptor (Homo sapiens, UniProt P47871); assay: Antagonist activity at wild type human GCGR transfected in HEK293T cells assessed as intracellular cAMP accumulation incubated for 60 mins by FRET assay; assay type: functional, cell-based
Glucagon receptor [4] = molecular target: T1, Glucagon receptor; assay: Antagonist activity at wild type human GCGR
[5] = Antioxidant activity assessed as DPPH radical scavenging activity; assay type: functional
[6] = Antioxidant activity assessed as DPPH radical scavenging activity at 10 uM incubated for 30 mins by absorbance based assay relative to control; assay type: functional
MDA-MB-231 = assay: cells; conditions: Homo sapiens
Description: Cytotoxicity against human MDA-MB-231 cells assessed as reduction in cell viability by MTT assay

PC-3 = assay: cells; conditions: Homo sapiens
Description: Cytotoxicity against human PC-3 cells assessed as reduction in cell viability by MTT assay

A549 = assay: cells; conditions: Homo sapiens
Description: Cytotoxicity against human A549 cells assessed as reduction in cell viability by MTT assay

Leishmania major = assay: Antileishmanial activity against Leishmania major promastigotes MHOM/IL/80/Friedlin expressing firefly luciferase infected in rhesus monkey LLC-MK2 cells assessed as reduction in parasite growth incubated for 72 hrs by luciferase based luminescence analysis; assay type: functional, organism-based; conditions: LLC-MK2, 72 h
MCF7 [7] = assay: Antiproliferative activity against human MCF7 cells; assay type: functional, cell-based; conditions: mcf7
[8] = Half life in human, iv; assay type: ADME
[9] = Antioxidant activity assessed as ROS scavenging activity relative to control; assay type: functional; conditions: dose or concentration not given here
[10] = Half life in po dosed human; assay type: ADME, organism-based; conditions: in vivo
Mus musculus = assay: Anti-diabetic activity against 16 hrs fasted KK/Ay mouse assessed as reduced blood glucose level at 2g/kg, po measured after 2 hrs by oral pyruvate tolerance test; assay type: functional
[11] = molecular target: T2, Polyunsaturated fatty acid 5-lipoxygenase (Homo sapiens, UniProt P09917); assay: Inhibition of 5-LOX (unknown origin)
T2 sequence (P09917 whole entry): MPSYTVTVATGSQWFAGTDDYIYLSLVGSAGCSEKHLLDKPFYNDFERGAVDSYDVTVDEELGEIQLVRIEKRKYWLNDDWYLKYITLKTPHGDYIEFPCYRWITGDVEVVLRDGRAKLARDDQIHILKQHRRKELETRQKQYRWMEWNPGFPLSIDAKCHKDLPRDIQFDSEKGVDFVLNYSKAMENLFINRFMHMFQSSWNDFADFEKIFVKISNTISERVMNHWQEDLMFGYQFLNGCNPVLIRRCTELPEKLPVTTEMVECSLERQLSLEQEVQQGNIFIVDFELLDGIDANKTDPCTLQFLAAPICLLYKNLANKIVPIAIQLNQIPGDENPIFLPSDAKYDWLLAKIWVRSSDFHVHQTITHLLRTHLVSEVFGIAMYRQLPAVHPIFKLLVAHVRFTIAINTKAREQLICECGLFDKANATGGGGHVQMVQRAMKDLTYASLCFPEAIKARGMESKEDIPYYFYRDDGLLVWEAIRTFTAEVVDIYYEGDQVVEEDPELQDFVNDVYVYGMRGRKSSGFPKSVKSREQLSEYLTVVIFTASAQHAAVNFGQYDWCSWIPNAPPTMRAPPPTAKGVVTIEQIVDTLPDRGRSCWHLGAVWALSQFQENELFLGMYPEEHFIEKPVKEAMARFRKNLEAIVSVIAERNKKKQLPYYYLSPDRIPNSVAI

[12] = molecular target: Amine oxidase [flavin-containing] A (Homo sapiens, UniProt P21397); assay: Inhibition of human MAO-A measured after 25 mins by Amplex Red reagent based fluorescence analysis
dsRNA = assay: Inhibition of double stranded RNA (unknown origin); assay type: nucleic-acid assay
Alpha glucosidase = Alpha glucosidase (Homo sapiens, UniProt O43451+P10253+P14410+Q2M2H8); assay: Inhibition of Alpha glucosidase (unknown origin); assay type: protein assay
[13] = Inhibition of Alpha-amylase (unknown origin); set-up: species or system Homo sapiens
Staphylococcus aureus = assay: Antibacterial activity against Staphylococcus aureus ATCC 25923 assessed as zone of inhibition; assay type: functional
Bacillus subtilis [14] = assay: Antibacterial activity against Bacillus subtilis ATCC 6633 assessed as zone of inhibition; assay type: functional
Escherichia coli = assay: Antibacterial activity against Escherichia coli ATCC 35218 assessed as zone of inhibition incubated for 48 hrs by agar diffusion method; assay type: functional
Bacillus subtilis [15] = assay: Antibacterial activity against Bacillus subtilis ATCC 6633 assessed as zone of inhibition incubated for 48 hrs by agar diffusion method; assay type: functional

T1 sequence (P47871 whole entry): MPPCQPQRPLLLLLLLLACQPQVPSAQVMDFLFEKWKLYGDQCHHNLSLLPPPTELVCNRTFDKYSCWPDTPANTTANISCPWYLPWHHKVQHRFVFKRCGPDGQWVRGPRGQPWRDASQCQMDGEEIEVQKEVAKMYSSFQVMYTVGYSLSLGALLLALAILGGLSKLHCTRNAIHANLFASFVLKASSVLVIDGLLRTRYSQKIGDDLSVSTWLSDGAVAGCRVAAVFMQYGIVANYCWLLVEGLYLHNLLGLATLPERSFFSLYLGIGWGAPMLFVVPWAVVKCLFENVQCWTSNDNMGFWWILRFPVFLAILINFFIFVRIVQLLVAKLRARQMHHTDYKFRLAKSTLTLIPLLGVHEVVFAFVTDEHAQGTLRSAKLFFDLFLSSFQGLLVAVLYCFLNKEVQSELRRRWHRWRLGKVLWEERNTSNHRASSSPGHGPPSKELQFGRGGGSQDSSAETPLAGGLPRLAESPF
Amine oxidase [flavin-containing] A, sequence (P21397 whole entry): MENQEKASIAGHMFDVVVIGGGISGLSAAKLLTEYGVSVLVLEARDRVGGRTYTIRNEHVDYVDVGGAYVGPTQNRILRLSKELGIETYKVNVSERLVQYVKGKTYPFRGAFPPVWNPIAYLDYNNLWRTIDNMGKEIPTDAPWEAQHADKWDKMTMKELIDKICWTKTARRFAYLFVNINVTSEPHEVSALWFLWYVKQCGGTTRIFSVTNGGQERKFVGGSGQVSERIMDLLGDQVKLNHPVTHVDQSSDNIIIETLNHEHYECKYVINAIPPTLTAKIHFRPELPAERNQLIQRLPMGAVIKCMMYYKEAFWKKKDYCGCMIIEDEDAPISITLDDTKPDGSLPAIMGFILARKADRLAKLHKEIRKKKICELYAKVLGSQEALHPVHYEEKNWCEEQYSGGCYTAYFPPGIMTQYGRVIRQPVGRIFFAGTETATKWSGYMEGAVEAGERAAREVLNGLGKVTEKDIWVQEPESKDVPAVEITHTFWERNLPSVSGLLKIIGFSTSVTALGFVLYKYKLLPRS

## N#CC(C#N)=NNc1sc2c(c1C1=NC(=O)C(Cc3ccc(Cl)cc3)S1)CCCC2 (centres undefined)
HONE1 cell line
  pIC50: 7.23
[1]
  IC50 at 24 h: 59 nM
HA22T cell line
  pIC50: 7.23
DLD-1
  pIC50: 7.23
MCF7 [2]
  pIC50: 7.23
NUGC-3
  pIC50: 7.23
HepG2
  pIC50: 7.23

## Cc1cc(Cl)ccc1-c1ccc(NC(=O)C(Cc2ccc(C(=O)NCCS(=O)(=O)O)s2)c2ccc(-c3ccc(OC(F)(F)F)cc3)cc2)cc1 (centres undefined)
Glucagon receptor [3]
  pIC50: 5.36
Glucagon receptor [4]
  pIC50: 5.21

## COc1cccc(NC(=O)Cn2cc(CN3CNc4sccc4C3=O)nn2)c1
[5]
  IC50: 30.16 µg/mL

## CC(=O)c1ccc(NC(=O)c2sc(Nc3ccccc3)c(C(=O)Nc3ccccc3)c2N)cc1
[6]
  inhibition: 62%

## Cc1ccc(NCc2ccc(CNc3ccc(C)cc3)o2)cc1
MDA-MB-231
  pIC50: 6.06
PC-3
  pIC50: 5.99
A549
  pIC50: 6.17

## CCOC(=O)c1c(NC(=O)c2cccc(C(F)(F)F)c2F)sc2c1CC(C)(C)NC2(C)C
Leishmania major
  pEC50: 7.05

## Oc1ccc(Nc2nnnc3sc4c(c23)CCC4)cc1
MCF7 [7]
  IC50: 38730 nM

## CO[C@@]1(NC(=O)Cc2cccs2)C(=O)N2C(C(=O)O)=C(COC(N)=O)CS[C@@H]21 [CEFOXITIN]
[8]
  half-life: 0.683 h

## CCOC(=O)c1c(NC(=O)c2c(NC(=O)CC#N)sc3c2CCC3)sc2c1CCCC2
[9]
  inhibition: 64.1%

## CONC(=O)Nc1ccc(-c2sc3c(c2CN(C)C)c(=O)n(-c2ccc(OC)nn2)c(=O)n3Cc2c(F)cccc2F)cc1 [RELUGOLIX]
[10]
  half-life: 25 h

## CC(=O)CC(=O)c1cc2ccccc2s1
Mus musculus
  Activity: <15.6 mmol/L

## COc1ccsc1CNCC[C@@]1(c2ccccn2)CCOC2(CCCC2)C1 [OLICERIDINE]
[8]
  half-life: 1.3 h

## Cc1nc2ccc(CN(C)c3ccc(C(=O)N[C@@H](CCC(=O)O)C(=O)O)s3)cc2c(=O)[nH]1 [RALTITREXED]
[10]
  half-life: 192 h

## COc1ccc2c3ccnc(C)c3n(CC3CC(c4cccs4)=NO3)c2c1 (centres undefined)
[11]
  pIC50: 4.53

## COc1cc2ncn(-c3cc(OCc4ccccc4C(F)(F)F)c(C(N)=O)s3)c2cc1OC [GW843682X]
[11]
  pIC50: 5.00

## COc1cc(/C=C/C(=O)c2cc3ccccc3s2)cc(OC)c1O
[5]; read-out: IC50
  pIC50: 5.22

## C/C(=N\N=C1/CS(=O)(=O)N(C)c2ccccc21)c1sccc1Cl
[12]
  pIC50: 5.98

## Cc1ccc(-c2cc(C(F)(F)F)nn2-c2ccc(S(N)(=O)=O)cc2)cc1 [CELECOXIB]
[11]
  pIC50: 5.25

## Clc1ccc(C2CC(c3ccc(Cl)s3)=NN2c2ccccc2)cc1 (centres undefined)
dsRNA
  pIC50: 4.96

## COc1ccc(CNC(=O)Nc2sc3c(c2C#N)CCCC3)c(OC)c1
Alpha glucosidase
  IC50: 590 nM
[13]
  pIC50: 4.52

## Clc1c(-c2nnc(CNc3ccccc3)o2)sc2ccccc12
Staphylococcus aureus
  inhibition zone (IZ): 15 mm
Bacillus subtilis [14]
  inhibition zone (IZ): 16 mm

## COc1cccc2c1C(=O)c1c(O)c3c(c(O)c1C2=O)C[C@@](O)(C(=O)CO)C[C@@H]3O[C@H]1C[C@H](N)[C@H](O)[C@H](C)O1 [DOXORUBICIN]
MDA-MB-231
  pIC50: 6.01
PC-3
  pIC50: 6.15
A549
  pIC50: 6.15

## COc1ccc(/C=C2\SC(=S)N(NC(=O)c3sc4ccccc4c3Cl)C2=O)cc1OC
[11]
  pIC50: 5.63

## Cc1cc(C2=NO[C@@](c3cc(Cl)c(Cl)c(Cl)c3)(C(F)(F)F)C2)sc1C(=O)NCC(=O)NCC(F)(F)F [LOTILANER]
[10]
  half-life: 11 h

## O=c1c2ccccc2nc(-c2sc3ccccc3c2Cl)n1O
Escherichia coli
  inhibition zone (IZ): 16 mm
Bacillus subtilis [15]
  inhibition zone (IZ): 15 mm
